Reference: patent US20230218632A1, “CYCLIC SULFONAMIDE DERIVATIVES AS TRAP1 MODULATORS AND USES THEREOF” (Amathus Therapeutics, Inc., priority 2020, published 2023)

Target: T1, TRAP1 enzyme (Homo sapiens, UniProt Q12931)
T1 sequence (Q12931 60-704): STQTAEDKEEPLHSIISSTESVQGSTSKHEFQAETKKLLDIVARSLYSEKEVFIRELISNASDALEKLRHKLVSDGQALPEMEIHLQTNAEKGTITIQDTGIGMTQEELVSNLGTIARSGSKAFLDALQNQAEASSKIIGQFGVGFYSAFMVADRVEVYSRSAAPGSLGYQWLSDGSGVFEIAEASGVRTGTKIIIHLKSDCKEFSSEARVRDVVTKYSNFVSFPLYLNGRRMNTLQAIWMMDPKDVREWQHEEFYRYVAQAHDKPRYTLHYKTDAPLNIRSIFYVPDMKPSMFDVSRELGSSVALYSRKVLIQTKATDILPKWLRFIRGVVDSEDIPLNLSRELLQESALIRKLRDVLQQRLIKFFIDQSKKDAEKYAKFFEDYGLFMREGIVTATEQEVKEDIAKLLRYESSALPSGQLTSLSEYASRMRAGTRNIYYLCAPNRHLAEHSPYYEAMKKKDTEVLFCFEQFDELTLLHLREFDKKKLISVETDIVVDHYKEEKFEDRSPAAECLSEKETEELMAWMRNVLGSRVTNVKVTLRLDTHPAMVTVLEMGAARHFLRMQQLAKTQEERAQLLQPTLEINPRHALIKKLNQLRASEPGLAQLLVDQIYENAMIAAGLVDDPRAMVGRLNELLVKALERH
Test: ADP Glo assay (ATPase activity of TRAP1)
Type: biochemical
Details: for EC50: 150 nM Trap1, 20 µM ATP, concentration for half maximal activation, read-out: ADP GLO DRC: GeoMean EC50; for Emax: maximal percent activation, read-out: ADP GLO DRC: Mean Emax
Method: Potency of test compounds to modulate the ATPase activity of TRAP1 enzyme was evaluated using ADP Glo assay. The assay is based on quantification of the ADP generated from ATP in the ATPase reaction. The assay is performed in two steps; first, after the ATPase reaction, an equal volume of ADP-Glo™ Reagent is added to terminate the ATPase reaction and deplete the remaining ATP. Second, the Kinase Detection Reagent is added to simultaneously convert ADP to ATP and allow the newly synthesized ATP to be measured using a luciferase/luciferin reaction.
All the assays were carried out in a 384-well Proxiplate. The buffer used was 25 mM Pipes pH-7.5, 40 mM KCl, 0.05 mM MgCl2, 0.025 % BSA, 0.316 mM EGTA, 0.003% Empigen, 0.01% Igepal. 150 nM Trap1 enzyme was incubated with various concentrations of the test compound (0.79 µM - 100 µM) at 37° C. for 30 mins (except in blank wells). 20 µM ATP was added to each well to start the reaction. The plate was spun for 1 min at 1200 rpm and then incubated at 37° C. for 60 mins. 5 µl of ADP Glo reagent was added to all the wells and spun the plate for 1 min at 1200 rpm and kept it on a shaker at ambient temperature for 60 mins. 10 µl of kinase detection mix was added to all the wells and the plate was read for Luminescence at 495 nm. The amount of ADP released was estimated from ATP/ADP standard curve generated at the same experimental conditions. Emax (Maximal percent activation) and EC50 (concentration for half maximal activation ) were estimated by fitting the dose response data to a sigmoidal curve fitting equation using Graphpad Prism software V. 8.

Compound	EC50 [µM]	Emax [%]
Cc1ccc(N2CCOc3ccc(NC(=O)c4ncoc4C)cc3S2(=O)=O)cc1 [Compound 2362]	30 to 100	150 to 200
Cc1ocnc1C(=O)Nc1ccc2c(c1)S(=O)(=O)N(c1ccc(F)cc1)CCO2 [Compound 2375, N-(2-(4-fluorophenyl)-1,1-dioxido-3,4-dihydro-2H-benzo[b][1,4,5]oxathiazepin-8-yl)-5-methyloxazole-4-carboxamide]	30 to 100	150 to 200
Cc1ocnc1C(=O)Nc1ccc2c(c1)S(=O)(=O)N(c1ccc(C#N)cc1)CCO2 [Compound 2377, N-(2-(4-cyanophenyl)-1,1-dioxido-3,4-dihydro-2H-benzo[b][1,4,5]oxathiazepin-8-yl)-5-methyloxazole-4-carboxamide]	30 to 100	150 to 200
Cc1ncoc1C(=O)Nc1ccc2c(c1)S(=O)(=O)N(c1ccc(C(F)(F)F)nc1)CCO2 [Compound 2388]	30 to 100	150 to 200
COc1cc(N2CCOc3ccc(NC(=O)c4ncoc4C)cc3S2(=O)=O)ccc1C(F)(F)F [Compound 2398]	< 20	129 to 149
CN1CCCCC1C(=O)Nc1ccc2c(c1)S(=O)(=O)N(c1ccc(C(F)(F)F)cc1)CCO2 (stereo not drawn) [Compound 2402]	30 to 100	150 to 200
O=C(Nc1ccc2c(c1)S(=O)(=O)N(c1ccc(C(F)(F)F)cc1)CCO2)C1CCCN1 (stereo not drawn) [Compound 2410]	30 to 100	150 to 200
CN1CCCC1C(=O)Nc1ccc2c(c1)S(=O)(=O)N(c1ccc(C(F)(F)F)cc1)CCO2 (stereo not drawn) [Compound 2417]	30 to 100	150 to 200
O=C(Nc1ccc2c(c1)S(=O)(=O)N(c1ccc(C(F)(F)F)cc1)CCO2)c1cnc(-c2ccccc2)[nH]1 [Compound 2423]	< 20	129 to 149
O=C(Nc1ccc2c(c1)S(=O)(=O)N(c1ccc(C(F)(F)F)cc1)CCO2)c1csc2c1CNCC2 [Compound 2433]	30 to 100	> 200
CC(C)n1cncc1C(=O)Nc1ccc2c(c1)S(=O)(=O)N(c1ccc(C(F)(F)F)cc1)CCO2 [Compound 2439]	20 to 30	150 to 200
Cc1ncoc1C(=O)Nc1ccc2c(c1)S(=O)(=O)N(c1ccc(C(F)F)cc1)CCO2 [Compound 2443]	30 to 100	150 to 200
Cc1ocnc1C(=O)N(C)c1ccc2c(c1)S(=O)(=O)N(c1ccc(C(F)(F)F)cc1)CCO2 [Compound 2449]	30 to 100	150 to 200
Cc1ncoc1C(=O)Nc1ccc2c(c1)S(=O)(=O)N(c1ccc(C(F)(F)F)cc1)CCC2 [Compound 2458]	< 20	129 to 149
Cn1cccc(C(=O)Nc2cnc3c(c2)S(=O)(=O)N(c2ccc(C(F)(F)F)cc2)CCO3)c1=O [Compound 2462]	20 to 30	150 to 200
CN1CCc2scc(C(=O)Nc3ccc4c(c3)S(=O)(=O)N(c3ccc(C(F)(F)F)cc3)CCO4)c2C1 [Compound 2472]	30 to 100	150 to 200
Cc1cc(C(=O)Nc2cnc3c(c2)S(=O)(=O)N(c2ccc(C(F)(F)F)cc2)CCO3)n(C)n1 [Compound 2495]	20 to 30	> 200
O=C(Nc1ccc2c(c1)S(=O)(=O)N(c1ccc(C(F)(F)F)cc1)CCO2)c1csc(-c2ccccc2)n1 [Compound 2503]	30 to 100	129 to 149
O=C(Nc1ccc2c(c1)S(=O)(=O)N(c1ccc(C(F)(F)F)cc1)CCO2)c1cncn1CCO [Compound 2514]	20 to 30	129 to 149
Cc1cc(C(=O)Nc2cnc3c(c2)S(=O)(=O)N(c2ccc(C(F)(F)F)cc2)CCO3)cc(C)n1 [Compound 2515]	20 to 30	> 200

The next lines start with the values.

EC50 [µM]	Emax [%]	Compound
< 20	150 to 200	O=C(Nc1ccc2c(c1)S(=O)(=O)N(c1ccc(C(F)(F)F)cc1)CCO2)c1cccc(CO)n1 [Compound 2291]
< 20	150 to 200	Cn1ccc(C(=O)Nc2ccc3c(c2)S(=O)(=O)N(c2ccc(C(F)(F)F)cc2)CCO3)n1 [Compound 2294]
30 to 100	> 200	Cc1c(C(=O)Nc2ccc3c(c2)S(=O)(=O)N(c2ccc(C(F)(F)F)cc2)CCO3)cnn1C [Compound 2295]
< 20	150 to 200	O=C(Nc1ccc2c(c1)S(=O)(=O)N(c1ccc(C(F)(F)F)cc1)CCO2)c1ccc(CO)cn1 [Compound 2296]
30 to 100	> 200	O=C(Nc1ccc2c(c1)S(=O)(=O)N(c1ccc(C(F)(F)F)cc1)CCO2)c1ccc(O)nc1 [Compound 2299]
20 to 30	129 to 149	O=C(Nc1ccc2c(c1)S(=O)(=O)N(c1ccc(C(F)(F)F)cc1)CCO2)c1csc(CO)n1 [Compound 2305]
< 20	129 to 149	Cc1cnn(C)c1C(=O)Nc1ccc2c(c1)S(=O)(=O)N(c1ccc(C(F)(F)F)cc1)CCO2 [Compound 2317]
20 to 30	150 to 200	COc1ccncc1C(=O)Nc1ccc2c(c1)S(=O)(=O)N(c1ccc(C(F)(F)F)cc1)CCO2 [Compound 2323]
< 20	150 to 200	O=C(Nc1ccc2c(c1)S(=O)(=O)N(c1ccc(C(F)(F)F)cc1)CCO2)c1cnc[nH]c1=O [Compound 2334]
30 to 100	150 to 200	Cc1ncnc(C)c1C(=O)Nc1ccc2c(c1)S(=O)(=O)N(c1ccc(C(F)(F)F)cc1)CCO2 [Compound 2337]
< 20	129 to 149	Cc1cc(C(=O)Nc2ccc3c(c2)S(=O)(=O)N(c2ccc(C(F)(F)F)cc2)CCO3)n(C)n1 [Compound 2339]
30 to 100	150 to 200	Cc1ncn(C)c1C(=O)Nc1ccc2c(c1)S(=O)(=O)N(c1ccc(C(F)(F)F)cc1)CCO2 [Compound 2343]
< 20	150 to 200	CCc1ncccc1C(=O)Nc1ccc2c(c1)S(=O)(=O)N(c1ccc(C(F)(F)F)cc1)CCO2 [Compound 2344]
30 to 100	150 to 200	Cc1oncc1C(=O)Nc1ccc2c(c1)S(=O)(=O)N(c1ccc(C(F)(F)F)cc1)CCO2 [Compound 2345]
30 to 100	> 200	Cn1c(C(=O)Nc2ccc3c(c2)S(=O)(=O)N(c2ccc(C(F)(F)F)cc2)CCO3)cnc1O [Compound 2351]
< 20	> 200	Cc1ncc(C(=O)Nc2ccc3c(c2)S(=O)(=O)N(c2ccc(C(F)(F)F)cc2)CCO3)n1C [Compound 2355]
< 20	129 to 149	Cn1cc(C(=O)Nc2ccc3c(c2)S(=O)(=O)N(c2ccc(C(F)(F)F)cc2)CCO3)c2cccnc21 [Compound 2451]
30 to 100	> 200	O=C(Nc1ccc2c(c1)S(=O)(=O)N(c1ccc(C(F)(F)F)cc1)CCO2)c1cc(=O)cc[nH]1 [Compound 2473]
30 to 100	129 to 149	O=C(Nc1ccc2c(c1)S(=O)(=O)N(c1ccc(C(F)(F)F)cc1)CCO2)c1ncoc1C(F)(F)F [Compound 2494]
30 to 100	150 to 200	Cc1cc(C(=O)Nc2ccc3c(c2)S(=O)(=O)N(c2ccc(C(F)(F)F)cc2)CCO3)cc(C)n1 [Compound 2510]
30 to 100	> 200	NCc1cccc(C(=O)Nc2ccc3c(c2)S(=O)(=O)N(c2ccc(C(F)(F)F)cc2)CCO3)n1 [Compound 2513]
30 to 100	> 200	Cn1ccc(=O)cc1C(=O)Nc1ccc2c(c1)S(=O)(=O)N(c1ccc(C(F)(F)F)cc1)CCO2 [Compound 2516]
